Measured values: PubChem BioAssay (NCI)
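In this assay, cells in 96-well plates receive the compound at five concentrations for 48 hours. Endpoints are linearly interpolated between the surrounding concentrations. TGI is the concentration that stops growth completely.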

Columns and labels:
Assay in all cases: NCI anticancer screen, dose series, 48 h
OVCAR-4 ovarian = test system: OVCAR-4 ovarian
HS 578T breast = test system: HS 578T breast
SNB-75 CNS = test system: SNB-75 CNS
SN12C renal = test system: SN12C renal
NCI-H460 lung = test system: NCI-H460 lung
SF-295 CNS = test system: SF-295 CNS
NCI-H522 lung = test system: NCI-H522 lung
SW-620 colon = test system: SW-620 colon
SF-268 CNS = test system: SF-268 CNS
MDA-MB-231 breast = test system: MDA-MB-231 breast
SK-MEL-5 melanoma = test system: SK-MEL-5 melanoma
M14 melanoma = test system: M14 melanoma
OVCAR-8 ovarian = test system: OVCAR-8 ovarian
RPMI-8226 leukemia = test system: RPMI-8226 leukemia
CCRF-CEM leukemia = test system: CCRF-CEM leukemia
UACC-62 melanoma = test system: UACC-62 melanoma
KM12 colon = test system: KM12 colon
MDA-MB-435 = test system: MDA-MB-435
SK-MEL-28 melanoma = test system: SK-MEL-28 melanoma
KM20L2 colon = test system: KM20L2 colon

Compound | TGI (OVCAR-4 ovarian) [µM] | TGI (HS 578T breast) [µM] | TGI (SNB-75 CNS) [µM] | TGI (SN12C renal) [µM] | TGI (NCI-H460 lung) [µM] | TGI (SF-295 CNS) [µM] | TGI (NCI-H522 lung) [µM] | TGI (SW-620 colon) [µM] | TGI (SF-268 CNS) [µM] | TGI (MDA-MB-231 breast) [µM] | TGI (SK-MEL-5 melanoma) [µM] | TGI (M14 melanoma) [µM] | TGI (OVCAR-8 ovarian) [µM] | TGI (RPMI-8226 leukemia) [µM] | TGI (CCRF-CEM leukemia) [µM] | TGI (UACC-62 melanoma) [µM] | TGI (KM12 colon) [µM] | TGI (MDA-MB-435) [µM] | TGI (SK-MEL-28 melanoma) [µM] | TGI (KM20L2 colon) [µM]
C#C[C@]1(O)CC[C@H]2[C@@H]3CCC4=C/C(=N\OCCN(CC)CC)CC[C@]4(C)[C@H]3CC[C@@]21C | 50.4 | 7.51 | 10.9 | 46.8 | 21 | 5.21 | 5.76 | > 29.1 | 10.8 | 35.2 | 7.37 | 10.9 | 24.6 | 5.83 | 44.9 | 11.3 | 11.4 | 15.2 | 25.8 | –
Cc1cc(=O)oc2c(C)c3oc(CBr)c(Br)c3cc12 | 88.1 | > 100 | 70 | 58.7 | 49 | 42.5 | 30.2 | 52.1 | 78.6 | > 100 | 33.8 | 50.3 | 97.7 | 64.6 | > 100 | 37.6 | 83.8 | > 100 | > 100 | –
Cc1nc2c(n1CCN(C)C)C(=O)c1ccccc1C2=O | 29.3 | – | > 100 | 35.8 | 45.5 | 30.9 | 18.5 | 29 | 72 | – | 20.4 | 24.1 | 43.1 | – | 47.1 | 25.8 | 40.9 | – | > 100 | 25.8
CCCC(=O)OCC1OC(n2cc(F)c(=O)[nH]c2=O)C(F)C1OC(=O)CCC (stereo unspecified) | > 100 | > 100 | > 100 | > 100 | > 100 | > 100 | > 100 | > 100 | > 100 | > 100 | > 100 | > 100 | > 100 | > 100 | > 100 | > 100 | > 100 | > 100 | > 100 | –
C[N+](C)(C)CC(=O)N/N=C(/CC1OC(=O)c2ccccc21)c1ccccc1O (stereo unspecified) | > 100 | > 100 | > 100 | > 100 | 70.9 | > 100 | > 100 | > 100 | > 100 | > 100 | > 100 | > 100 | 82 | 22.1 | 49.3 | 72.1 | > 100 | 97.8 | > 100 | –
N#CC(C(=N/NC(N)=S)/C(=N/NC(N)=S)C(C#N)c1ccc(Cl)cc1)c1ccc(Cl)cc1 (stereo unspecified) | > 100 | – | 92.1 | > 100 | > 100 | > 100 | > 100 | > 100 | > 100 | – | > 100 | > 100 | > 100 | – | 97.9 | > 100 | > 100 | – | > 100 | > 100
COC(=O)C1N=CSCC1(C)O (stereo unspecified) | > 100 | – | > 100 | > 100 | > 100 | > 100 | – | > 100 | > 100 | – | > 100 | > 100 | > 100 | > 100 | > 100 | > 100 | > 100 | – | > 100 | > 100
COC(=O)NC(=O)c1cn(CCCOC(=O)CCCCCCCCC(=O)OCCCn2cc(C(=O)NC(=O)OC)c(=O)[nH]c2=O)c(=O)[nH]c1=O | > 100 | – | 50.1 | > 100 | > 100 | > 100 | – | > 100 | > 100 | – | > 100 | > 100 | > 100 | > 100 | > 100 | > 100 | > 100 | – | > 100 | > 100
CC1(C)CCC[C@@]2(C)C1C(=O)[C@@H]1O[C@]1(C)[C@@H]2CO (stereo partly specified) | > 100 | > 100 | 79 | > 100 | > 100 | > 100 | 93.1 | > 100 | > 100 | > 100 | > 100 | > 100 | > 100 | 53.4 | > 100 | > 100 | > 100 | > 100 | 80.9 | –
CCCCCCCCCCCCCCCC(=O)OC(COC(C)=O)CO[P+](=O)O (stereo unspecified) | > 100 | 36.6 | 94 | > 100 | > 100 | 35.4 | 36.2 | > 100 | 49.6 | 50.5 | > 100 | 28.4 | 44.4 | > 100 | > 100 | > 100 | 48.4 | > 100 | > 100 | –
COC(=O)C1=C(O)CCCC(CCC(C)=O)=C1 | > 100 | > 100 | > 100 | > 100 | > 100 | > 100 | 31.1 | > 100 | > 100 | > 100 | > 100 | > 100 | > 100 | > 100 | 25.2 | > 100 | > 100 | > 100 | > 100 | –
COc1ccc(NC(=O)CC(=O)N/N=C/c2ccc(N(CCC#N)S(=O)(=O)c3ccccc3)cc2)cc1 | > 100 | – | – | – | > 100 | > 100 | > 100 | > 100 | > 100 | – | > 100 | > 100 | > 100 | > 100 | > 100 | > 100 | > 100 | – | > 100 | > 100
COc1ccc(CCNC(=O)CCc2ccccc2CO)cc1OC | > 100 | > 100 | > 100 | > 100 | > 100 | > 100 | > 100 | > 100 | > 100 | > 100 | > 100 | > 100 | > 100 | > 100 | > 100 | > 100 | > 100 | > 100 | > 100 | –
